Among the test systems are SNB-75 CNS; RXF 393 renal; SW-620 colon; HOP-62 NSCLC; HS 578T breast; TK-10 renal; SF-295 CNS; U251 CNS; K-562 leukemia; RPMI-8226 leukemia.
What all share (assay): NCI anticancer screen, dose series, 48 h

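Tested at 5 concentrations; 48 h exposure; 96-well plates; endpoints linearly interpolated, else capped at highest concentration. GI50 = concentration required for 50% inhibition of growth. TGI is the concentration that stops growth completely.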

For the compound `CCOc1ccc(/C=C2\NC(=S)N(/C=C3\C(=O)Oc4ccccc4C3=O)C2=O)cc1`, the TGI in the test with SNB-75 CNS was 61.6 µM; with RXF 393 renal, 33.6 µM; with SW-620 colon it was over 100 µM; with HOP-62 NSCLC, 61.9 µM; with HS 578T breast it was 96.2 µM; with TK-10 renal it was 49.6 µM. Besides, the TGI is 49.8 µM in the test with SF-295 CNS and 78.4 µM with U251 CNS.
For the compound `CCOC(=O)C(C(=O)OCC)C(=O)c1ccccc1C(=O)c1ccccc1`, the TGI with SNB-75 CNS is over 100 µM; in the test on K-562 leukemia it was over 100 µM; in the test on RXF 393 renal it was over 100 µM; in the test with SW-620 colon it was 50.5 µM; with HOP-62 NSCLC, over 100 µM; with HS 578T breast it was over 100 µM. Besides, the TGI in the test with TK-10 renal, in the test on SF-295 CNS and with U251 CNS was over 100 µM each time.
With `COc1cccc(N=N/C(=N\NC(=O)c2cc(Br)ccc2O)c2ccc(N(CCC#N)CCC#N)cc2OC)c1`, the GI50 is 19.6 µg/mL with SNB-75 CNS; 25.4 µg/mL in the test with K-562 leukemia; 70.4 µg/mL with RXF 393 renal; 63.1 µg/mL with SW-620 colon; 48.9 µg/mL in the test on HS 578T breast; 41.4 µg/mL in the test with RPMI-8226 leukemia. Further, the GI50 in the test on SF-295 CNS was 52.6 µg/mL; in the test with U251 CNS, 34.4 µg/mL. Also, the TGI was 69.5 µg/mL with SNB-75 CNS; over 150 µg/mL in the test on K-562 leukemia; over 150 µg/mL with RXF 393 renal; over 150 µg/mL in the test on SW-620 colon; over 150 µg/mL with HS 578T breast; over 150 µg/mL in the test on RPMI-8226 leukemia. The TGI in the test with SF-295 CNS and in the test on U251 CNS was over 150 µg/mL throughout.
As to `CCN(CC)CCn1c2ccc(OC)cc2c2sc3cc(OC)ccc3c(=O)c21`, the GI50 with SNB-75 CNS is 1.11 µM; in the test with K-562 leukemia, 0.728 µM; with RXF 393 renal it was 1.4 µM; in the test with SW-620 colon, 0.825 µM; with HOP-62 NSCLC, 2.32 µM; in the test on HS 578T breast, 1.96 µM. The GI50 in the test on TK-10 renal is 2.33 µM; in the test on SF-295 CNS, 1.82 µM; in the test with U251 CNS, 1.55 µM. In addition, the TGI with SNB-75 CNS worked out at 6.48 µM; in the test with K-562 leukemia it was 2.76 µM; with RXF 393 renal, 2.79 µM; in the test with SW-620 colon it was 2.41 µM; in the test with HOP-62 NSCLC it was 8.62 µM; in the test on HS 578T breast, 4.98 µM. Besides, the TGI in the test with TK-10 renal is 8.15 µM; in the test on SF-295 CNS, 3.45 µM; with U251 CNS it was 3.63 µM.
With `O=C(O)c1ccccc1N=Nc1ccc2oc(=O)c(C(=O)Nc3ccccc3)cc2c1`, the TGI was 98.3 µM in the test with SNB-75 CNS; over 100 µM in the test on K-562 leukemia; over 100 µM with RXF 393 renal; over 100 µM with SW-620 colon; 97.7 µM in the test with HOP-62 NSCLC; over 100 µM with RPMI-8226 leukemia. In addition, the TGI in the test on TK-10 renal, in the test on SF-295 CNS and in the test on U251 CNS was over 100 µM throughout.
Regarding `COc1ccc(-c2ccc(-c3ccc(C(=N)N)cn3)o2)cc1Cl`, the GI50 in the test on SNB-75 CNS is 1.66 µM; with K-562 leukemia, 2.7 µM; in the test on RXF 393 renal, 1.61 µM; in the test on SW-620 colon it was 1.78 µM; in the test with HOP-62 NSCLC, 3.68 µM; in the test with HS 578T breast it was 2.08 µM. Besides, the GI50 in the test on TK-10 renal was 3.19 µM; in the test on SF-295 CNS it was 1.65 µM; in the test with U251 CNS, 1.79 µM. For the same compound, the TGI was determined as 3.51 µM in the test on SNB-75 CNS; 7.5 µM with K-562 leukemia; 3.07 µM in the test with RXF 393 renal; 3.57 µM with SW-620 colon; 14.4 µM in the test with HOP-62 NSCLC; 6.18 µM with HS 578T breast. The figures for the TGI with TK-10 renal, in the test on SF-295 CNS and in the test with U251 CNS were 9.47 µM, 3.27 µM and 3.53 µM, respectively.
For the compound `CN(C)CCCCn1ccc2c1C(=O)c1c(c(O)c3ccccc3c1O)C2=O`, the GI50 in the test on SNB-75 CNS was 15.8 µM; in the test with K-562 leukemia, 1.78 µM; in the test on RXF 393 renal, 2.18 µM; in the test with HOP-62 NSCLC it was 15.8 µM; in the test with HS 578T breast it was 33.1 µM; with RPMI-8226 leukemia, 1.74 µM. Further, the GI50 with TK-10 renal was 0.501 µM; in the test with SF-295 CNS, 4.63 µM; in the test with U251 CNS, 17.9 µM. The TGI with SNB-75 CNS was determined as 35.8 µM; in the test with K-562 leukemia, 4.07 µM; in the test with RXF 393 renal it was 8.91 µM; in the test with HOP-62 NSCLC it was 31 µM; in the test on HS 578T breast, 60.9 µM; in the test on RPMI-8226 leukemia, 7.52 µM. Besides, the TGI with TK-10 renal was found to be 7.73 µM; in the test on SF-295 CNS it was 15.5 µM; in the test on U251 CNS, 31.7 µM.
Regarding `CCOC(=O)C(C)(C)Oc1ccc2c(-c3ccc(Cl)cc3)c(-c3ccc(Cl)cc3)c(=O)oc2c1`, the TGI in the test on SNB-75 CNS, with K-562 leukemia, with RXF 393 renal, with SW-620 colon, in the test with HOP-62 NSCLC and with RPMI-8226 leukemia was over 100 µM throughout. The TGI with TK-10 renal, in the test on SF-295 CNS and with U251 CNS was over 100 µM in each case.
On to `OCC(O)C(O)C(O)c1nn(-c2ccccc2)c2nc3cc(Cl)c(Cl)cc3nc12` (stereo unspecified), for which the TGI was 47.8 µM in the test with SNB-75 CNS; 44.1 µM in the test with K-562 leukemia; 47.7 µM in the test on RXF 393 renal; over 100 µM with SW-620 colon; over 100 µM with HOP-62 NSCLC; over 100 µM with RPMI-8226 leukemia. Further, the TGI in the test on TK-10 renal, in the test with SF-295 CNS and with U251 CNS was over 100 µM each time.
Consider `CC1CCCc2c1c1ccc3c(O)cccc3c1oc2=O` (stereo unspecified), for which the TGI is 21.8 µM in the test on SNB-75 CNS; over 100 µM in the test with K-562 leukemia; 73.2 µM with RXF 393 renal; over 100 µM in the test with SW-620 colon; 54.1 µM in the test with HOP-62 NSCLC; over 100 µM in the test with RPMI-8226 leukemia. The TGI is 71.3 µM in the test on TK-10 renal, 33.8 µM with SF-295 CNS and over 100 µM with U251 CNS.
Take `COC(=O)[C@H](C)NC(=O)[C@@H](OC)[C@@H]1Cc2cc3cc(OC4CC(OC5CC(O)C(O)C(C)O5)C(O)C(C)O4)c(C)c(O)c3c(O)c2C(=O)[C@H]1OC1CC(OC2CC(OC3CC(C)(O)C(O)C(C)O3)C(O)C(C)O2)C(O)C(C)O1` (stereo partly specified): the GI50 was 0.0911 µM in the test on SNB-75 CNS; 0.179 µM with K-562 leukemia; 0.116 µM in the test on SW-620 colon; 0.0774 µM with HOP-62 NSCLC; 0.0983 µM with HS 578T breast; 0.1 µM in the test with RPMI-8226 leukemia. In addition, the figures for the GI50 with TK-10 renal, with SF-295 CNS and in the test with U251 CNS were 0.336 µM, 0.0885 µM and 0.073 µM, respectively. In addition, the TGI in the test with SNB-75 CNS was 0.774 µM; in the test on K-562 leukemia it was over 50 µM; in the test on SW-620 colon it was over 50 µM; in the test with HOP-62 NSCLC, over 50 µM; in the test with HS 578T breast it was 2.17 µM; in the test with RPMI-8226 leukemia, 1.89 µM. For the same compound, the TGI in the test on TK-10 renal, in the test on SF-295 CNS and with U251 CNS was over 50 µM in each case.

(Values after PubChem BioAssay (NCI).)
